The structures appear in SMILES notation. Structures can show the parent of a compound that is named as a salt. Where two headings read alike, the source gives them in different places.

Data on 27 compounds can be found in PMC3116189, “Novel Natural Inhibitors of CYP1A2 Identified by in Silico and in Vitro Screening” (International Journal of Molecular Sciences, 2011).

The series concerns the target T1, CYP1A2 (Homo sapiens, UniProt P05177).
T1 sequence (P05177 1-516): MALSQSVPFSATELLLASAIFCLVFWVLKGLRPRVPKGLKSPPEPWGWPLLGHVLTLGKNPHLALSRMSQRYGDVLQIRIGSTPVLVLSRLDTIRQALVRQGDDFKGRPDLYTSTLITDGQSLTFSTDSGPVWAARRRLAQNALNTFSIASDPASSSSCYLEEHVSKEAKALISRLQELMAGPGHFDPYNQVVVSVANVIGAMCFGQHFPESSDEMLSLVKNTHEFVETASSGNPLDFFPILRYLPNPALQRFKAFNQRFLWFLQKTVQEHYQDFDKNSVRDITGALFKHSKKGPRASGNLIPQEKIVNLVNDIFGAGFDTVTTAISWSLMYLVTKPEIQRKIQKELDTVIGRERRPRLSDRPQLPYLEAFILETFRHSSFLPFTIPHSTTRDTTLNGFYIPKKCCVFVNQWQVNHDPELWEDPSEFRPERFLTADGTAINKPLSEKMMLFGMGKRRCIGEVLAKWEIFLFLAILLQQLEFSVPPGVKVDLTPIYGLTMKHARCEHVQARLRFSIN
Kind of series: in vitro. The series is classed as biochemical.

Where [1] appears, read: human, recombinant enzyme, pH 7.4.
Where [2] appears, read: human, recombinant human CYP1A2, pH 7.4, probe phenacetin (25 μM), O-deethylation to acetaminophen, 1 μM active ingredient, Rh CYP1A2-mediated phenacetin O-deethylation, test dataset of 202 herb ingredients, read-out: % of Control Indication Activity (Mean).
[3] abbreviates: 1 μM active ingredient, Rh CYP1A2-mediated phenacetin O-deethylation, test dataset of 202 herb ingredients.
[4] abbreviates: recombinant enzyme, pH 7.4, 1 μM active ingredient, Rh CYP1A2-mediated phenacetin O-deethylation, test dataset of 202 herb ingredients, read-out: % of Control Indication Activity (Mean).
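Note: recombinant CYP1A2 incubated for 1 h at 37 °C, with the reaction started by an NADPH-generating system.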

As to `COc1cc(C(O)C(CO)Oc2ccc(/C=C\CO)cc2OC)ccc1O` (single isomer, unassigned; (-)) [zhang 779, (−)-Threo-guaiacylglycerol-8-O-4′-(coniferyl alcohol) ether], for the setting “human, recombinant human CYP1A2, pH 7.4, probe phenacetin (25 μM), O-deethylation to acetaminophen, 1 μM test compound, 25 μM phenacetin, average of duplicate determinations, read-out: % of Control Indication Activity”, the activity at 1 h, 1 μM is above 90%.

Turning to `O=Cc1ccc(O)c(O)c1` [3,4-Dihydroxybenzaldehyde], under setting [1], the activity at 1 h, 1 μM is above 90%.

Regarding `COc1ccc(C=O)c(O)c1` [4-Methoxysalicylaldehyde], the activity at 1 h, 1 μM under setting [2] is above 90%.

As for `O=Cc1ccc(CO)o1` [5-Hydroxymethylfurfural], under setting [2], the activity at 1 h, 1 μM is above 90%.

With `COc1c2c(cc3oc(C)cc(=O)c13)OC(C(C)(C)O[C@@H]1O[C@H](CO)[C@@H](O)[C@H](O)[C@H]1O)C2` (stereo partly drawn) [5-O-Methylvisammioside], the “% of Control Indication Activity (Mean)” value under setting [3] was above 90%.

Turning to `Oc1cc(O)c2c(c1)O[C@H](c1ccc(O)c(O)c1)[C@@H](O)C2` [(+)-Catechin], the “% of Control Indication Activity (Mean)” value under setting [3] is listed as above 90%.

Regarding `Oc1cc(O)c2c(c1)O[C@H](c1ccc(O)c(O)c1)[C@H](O)C2` [(−)-Epicatechin], the activity at 1 h, 1 μM under setting [2] was above 90%.

`CCN1C[C@]2(COC)[C@H](O)C[C@H](OC)[C@@]34[C@@H]5C[C@@]6(O)[C@H](OC(=O)c7ccccc7)[C@@H]5[C@@](OC(C)=O)([C@@H]([C@H](OC)[C@H]23)[C@@H]14)[C@@H](O)[C@@H]6OC` [Aconitine]: the activity at 1 h, 1 μM under setting [4] was above 90%.

In the case of `C=C1C(=O)O[C@@H]2C[C@@]3(C)CCC[C@H](C)C3=C[C@H]12` [Alantolactone], the “% of Control Indication Activity (Mean)” value under setting [3] is above 90%.

As to `O=C1c2cccc(O)c2C(=O)c2c(O)cc(CO)cc21` [Aloe-emodin], under setting [1], the activity at 1 h, 1 μM is above 90%.

In the case of `COc1cc(O)cc2c1C(=O)C[C@@H](c1ccccc1)O2` [Alpinetin], under setting [2], the activity at 1 h, 1 μM is above 90%.

Consider `O=C1CCC[C@@H]2[C@H]3CCC[N@+]4([O-])CCC[C@@H](CN12)[C@@H]34` [Ammothamnine], for which the “% of Control Indication Activity (Mean)” value under setting [3] is recorded as above 90%.

On to `N#C[C@H](O[C@@H]1O[C@H](CO[C@@H]2O[C@H](CO)[C@@H](O)[C@H](O)[C@H]2O)[C@@H](O)[C@H](O)[C@H]1O)c1ccccc1` [Amygdalin], for which, under setting [4], the activity is above 90%.

In the case of `C=C1CC[C@@H]2[C@](C)(CO)[C@H](O)CC[C@@]2(C)[C@@H]1C/C=C1/C(=O)OC[C@H]1O` [Andrographolide], the activity at 1 h, 1 μM under setting [2] is above 90%.

As for `COc1ccc(C=O)cc1` [Anisaldehyde], the activity under setting [4] was above 90%.

For `COc1ccc(C[C@H]2COC(=O)[C@@H]2Cc2ccc(O[C@@H]3O[C@H](CO)[C@@H](O)[C@H](O)[C@H]3O)c(OC)c2)cc1OC` [Arctiin], the activity at 1 h, 1 μM under setting [2] was above 90%.

Take `COC(=O)C1=CCCN(C)C1` [Arecoline]: the activity under setting [4] is above 90%.

For `COc1cccc2c1cc([N+](=O)[O-])c1c(C(=O)O)cc3c(c12)OCO3` [Aristolochic Acid], the activity at 1 h, 1 μM under setting [4] was above 90%.

With `CN1[C@@H]2CC[C@H]1C[C@@H](OC(=O)C(CO)c1ccccc1)C2` (stereo partly drawn) [Atropine Sulfate], the activity (recombinant enzyme, pH 7.4) was above 90%.

With `O=c1cc(-c2ccccc2)oc2cc(O)c(O)c(O)c12` [Baicalein], the activity at 1 h, 1 μM under setting [1] was above 90%.

Consider `O=C(O)[C@H]1O[C@@H](Oc2cc3oc(-c4ccccc4)cc(=O)c3c(O)c2O)[C@H](O)[C@@H](O)[C@@H]1O` [Baicalin], for which the activity at 1 h, 1 μM under setting [1] was above 90%.

On to `O=C1c2c(O)cccc2C([C@@H]2O[C@H](CO)[C@@H](O)[C@H](O)[C@H]2O)c2cc(CO)cc(O)c21` (stereo partly drawn) [Bar baloin], for which the activity at 1 h, 1 μM under setting [2] is above 90%.

As to `COc1ccc2cc3[n+](cc2c1OC)CCc1cc2c(cc1-3)OCO2` [Berberine Hydrochloride], the activity at 1 h, 1 μM under setting [2] is above 90%.

As to `COc1c(O)cc2c(c1O)[C@@H]1O[C@H](CO)[C@@H](O)[C@H](O)[C@H]1OC2=O` [Bergenin], the activity at 1 h, 1 μM under setting [2] is above 90%.

Regarding `C[N+](C)(C)CC(=O)O` [Betaine], under setting [2], the activity at 1 h, 1 μM was above 90%.

`CC(C)(C)[C@]1(O)CC2OC(=O)CC23C(=O)OC2OC(=O)[C@H](O)C231` (stereo partly drawn) [Bilobalide]: the activity at 1 h, 1 μM under setting [4] was above 90%.

For `CC(=O)OC1CC2CCC1(C)C2(C)C` (stereo not drawn) [Bornylacetate], under setting [2], the activity at 1 h, 1 μM is above 90%.
